Toxic doses and inconclusive results are not listed. Rule as the data show it: active = T/C of 150% or more; inactive = T/C below 125%.
Tested on: L1210 leukemia ip in BDF1 mice, survival T/C
Assay: NCI In Vivo Anticancer Drug Screen. Data for tumor model L1210 Leukemia (intraperitoneal) in B6D2F1 (BDF1) mice
Conditions: endpoint: mean survival time, higher = longer survival
Method in brief: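 Tumor was transplanted into mice, which were then dosed with test compound or vehicle alone. Survival was recorded for each group, and the treated figure was expressed relative to the control figure.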

[1] = dose: 50.0 mg/kg/injection, schedule: Q01DX001 (ip), vehicle: saline
[2] = dose: 100.0 mg/kg/injection, schedule: Q01DX001 (ip), vehicle: saline
[3] = dose: 200.0 mg/kg/injection, schedule: Q01DX001 (ip), vehicle: saline
[4] = dose: 400.0 mg/kg/injection, schedule: Q01DX001 (ip), vehicle: saline
[5] = dose: 100.0 mg/kg/injection, schedule: Q01DX001 (ip), vehicle: Klucel (hydroxypropylcellulose) (HPC)
[6] = dose: 200.0 mg/kg/injection, schedule: Q01DX001 (ip), vehicle: Klucel (hydroxypropylcellulose) (HPC)
[7] = dose: 400.0 mg/kg/injection, schedule: Q01DX001 (ip), vehicle: Klucel (hydroxypropylcellulose) (HPC)

Measured: T/C

O=C(C[P+](c1ccccc1)(c1ccccc1)c1ccccc1)Nc1ccccc1
inactive: dose: 10.0 mg/kg/injection, schedule: Q01DX009 (ip), vehicle: Klucel (hydroxypropylcellulose) (HPC) 100 % of control | dose: 20.0 mg/kg/injection, schedule: Q01DX009 (ip), vehicle: Klucel (hydroxypropylcellulose) (HPC) 108 % of control | dose: 40.0 mg/kg/injection, schedule: Q01DX009 (ip), vehicle: Klucel (hydroxypropylcellulose) (HPC) 100 % of control | dose: 75.0 mg/kg/injection, schedule: Q01DX009 (ip), vehicle: Klucel (hydroxypropylcellulose) (HPC) 107 % of control

O=[N+]([O-])c1cccc([N+](=O)[O-])c1/C=N/Nc1nnc(N/N=C/c2c([N+](=O)[O-])cccc2[N+](=O)[O-])c2ccccc12
inactive: [1] 100 % of control | [2] 103 % of control | [3] 100 % of control | [4] 100 % of control

CCOC(=O)NCC(CCCN1CCOCC1)(c1cccc2ccccc12)C(C)CC (stereo not drawn)
inactive: dose: 100.0 mg/kg/injection, schedule: Q04DX002 (ip), vehicle: saline 102 % of control | dose: 200.0 mg/kg/injection, schedule: Q04DX002 (ip), vehicle: saline 106 % of control | dose: 400.0 mg/kg/injection, schedule: Q04DX002 (ip), vehicle: saline 97 % of control

CC(=O)c1cccnc1
inactive: [1] 104 % of control | [2] 91 % of control | [3] 93 % of control

O=C(CNC(=O)c1ccccc1)Oc1c(Cl)c(Cl)c(Cl)c(Cl)c1Cl
inactive: dose: 100.0 mg/kg/injection, schedule: Q01DX009 (ip), vehicle: other 104 % of control | dose: 200.0 mg/kg/injection, schedule: Q01DX009 (ip), vehicle: other 98 % of control | dose: 400.0 mg/kg/injection, schedule: Q01DX009 (ip), vehicle: other 93 % of control

CC(=O)NC1C(OC(=O)c2ccccc2)OC2COCOC2C1OC(=O)c1ccccc1 (stereo not drawn)
inactive: dose: 100.0 mg/kg/injection, schedule: Q01DX001 (ip), vehicle: saline with Tween-80 90 % of control | dose: 200.0 mg/kg/injection, schedule: Q01DX001 (ip), vehicle: saline with Tween-80 97 % of control | dose: 400.0 mg/kg/injection, schedule: Q01DX001 (ip), vehicle: saline with Tween-80 92 % of control

O=C(O)c1cc([N+](=O)[O-])ccc1Oc1cccc([N+](=O)[O-])c1
inactive: dose: 222.0 mg/kg/injection, schedule: Q01DX Z (ip), vehicle: methylcellulose (MC) 93 % of control | dose: 333.0 mg/kg/injection, schedule: Q01DX Z (ip), vehicle: methylcellulose (MC) 90 % of control | dose: 500.0 mg/kg/injection, schedule: Q01DX Z (ip), vehicle: methylcellulose (MC) 93 % of control

CCCCOC(=O)C1OC1c1ccccc1 (stereo not drawn)
inactive: dose: 100.0 mg/kg/injection, schedule: Q01DX009 (ip), vehicle: saline with Tween-80 88 % of control | dose: 100.0 mg/kg/injection, schedule: Q04DX002 (ip), vehicle: saline with Tween-80 90 % of control | dose: 200.0 mg/kg/injection, schedule: Q01DX009 (ip), vehicle: saline with Tween-80 95 % of control | dose: 200.0 mg/kg/injection, schedule: Q04DX002 (ip), vehicle: saline with Tween-80 88 % of control | dose: 400.0 mg/kg/injection, schedule: Q01DX009 (ip), vehicle: saline with Tween-80 95 % of control | dose: 400.0 mg/kg/injection, schedule: Q04DX002 (ip), vehicle: saline with Tween-80 102 % of control

CC(C)([CH2][Sn]([CH2]C(C)(C)c1ccccc1)[CH2]C(C)(C)c1ccccc1)c1ccccc1.CC(C)([CH2][Sn]([CH2]C(C)(C)c1ccccc1)[CH2]C(C)(C)c1ccccc1)c1ccccc1
inactive: dose: 75.0 mg/kg/injection, schedule: Q01DX001 (ip), vehicle: other 101 % of control | dose: 150.0 mg/kg/injection, schedule: Q01DX001 (ip), vehicle: other 106 % of control | dose: 300.0 mg/kg/injection, schedule: Q01DX001 (ip), vehicle: other 94 % of control

COc1ccc(OC)c(NC(=O)Oc2ccc(NC(C)=O)cc2)c1
inactive: dose: 100.0 mg/kg/injection, schedule: Q01DX009 (ip), vehicle: Klucel (hydroxypropylcellulose) (HPC) 104 % of control | dose: 200.0 mg/kg/injection, schedule: Q01DX009 (ip), vehicle: Klucel (hydroxypropylcellulose) (HPC) 102 % of control | dose: 400.0 mg/kg/injection, schedule: Q01DX009 (ip), vehicle: Klucel (hydroxypropylcellulose) (HPC) 96 % of control

CCCCN(CC)CC#N
inactive: dose: 6.25 mg/kg/injection, schedule: Q01DX009 (ip), vehicle: saline 104 % of control | dose: 12.5 mg/kg/injection, schedule: Q01DX009 (ip), vehicle: saline 101 % of control | dose: 12.5 mg/kg/injection, schedule: Q04DX003 (ip), vehicle: saline 94 % of control | dose: 25.0 mg/kg/injection, schedule: Q01DX009 (ip), vehicle: saline 93 % of control | dose: 25.0 mg/kg/injection, schedule: Q04DX003 (ip), vehicle: saline 89 % of control

CC(C)(C)c1ccc(OCCCOc2ccc(C(=O)O)cc2)cc1
inactive: [5] 97 % of control | dose: 100.0 mg/kg/injection, schedule: Q01DX009 (ip), vehicle: saline sonified 103 % of control | [6] 103 % of control | dose: 200.0 mg/kg/injection, schedule: Q01DX009 (ip), vehicle: saline sonified 118 % of control | [7] 100 % of control | dose: 400.0 mg/kg/injection, schedule: Q01DX009 (ip), vehicle: saline sonified 94 % of control

CCC(=O)OCNC(=O)NNC(=O)CCCC(=O)NNC(=O)NCOC(=O)CC
inactive: [1] 102 % of control | [2] 102 % of control | [3] 106 % of control | [4] 100 % of control

C=C1OC(=O)C(=O)N1CC(=O)O
inactive: [2] 103 % of control | [3] 106 % of control

COC(=O)c1ccc(Cl)cc1OCC(=O)Nc1ccccc1
inactive: [5] 97 % of control | [6] 103 % of control | [7] 93 % of control

CCSCCC(=O)O
inactive: dose: 50.0 mg/kg/injection, schedule: Q01DX001 (ip), vehicle: Klucel (hydroxypropylcellulose) (HPC) 97 % of control | [5] 92 % of control | [6] 97 % of control

Source: PubChem BioAssay AID248 (DTP/NCI, 2004)
